These results are taken from patent US11648252B2, “Methotrexate for use as a medicament” (GF SERVICE S.R.L., priority 2018, dated 2023).

The structures appear in SMILES notation.

For data set [1] the following is noted: cited from earlier work.
Data set [2] concerns rheumatoid arthritis. To be noted: IV, initial 40 mg/m^2, final 26 mg/m^2; 10 test persons; infected plantar or severe nausea; cited from earlier work.
Data set [3] deals with patients. To be noted: long-term data; cited from earlier work.
Data set [4] concerns rheumatoid arthritis. To be noted: IV 50 mg/week for 2 to 20 weeks; 14 test persons; oral ulceration, GI symptoms, liver enzyme abnormalities; cited from earlier work.
In data set [5] the test system is refractory rheumatoid arthritis. To be noted: IV 500 mg/m^2, 24 weeks, plus oral folinic acid 25 mg/m^2; 8 test persons; inefficacy, GI intolerance or sciatica; cited from earlier work.
In data set [6] the test system is active rheumatoid arthritis. Particulars: intramuscular, 15 to 45 mg/m^2 within 22 weeks, plus 5 mg folinic acid per week; 27 test persons; recurrent chest infections or inefficacy; cited from earlier work.
Data set [7] concerns rheumatoid arthritis (RA). Particulars: treating rheumatoid arthritis; cited from earlier work.
Data set [8] deals with patients with RA. Briefly: STEMETRA open-label pilot study, safety and tolerability (adverse events, CTCAE v4.0). Format: in vivo, human. As for the experimental part: (§1) The STEp-down MEthotrexate Therapy in Rheumatoid Arthritis (STEMETRA) was an open-label, monocentric, pilot study with the primary aim of assessing the safety and the tolerability of high dose subcutaneous (SC)-MTX in patients with RA. […] In view of the exploratory nature of this study, the expected enrolment was of 10 patients. Patients received a SC-MTX commercially available formulation (Reumaflex®, Alfasigma, Italy), dispensed as prefilled syringes of 25 mg, 20 mg, and 15 mg. For reaching the dosage of 50 mg at the beginning of the study, patients injected two SC-MTX 25 mg syringes consecutively.
(§2) The protocol treatment schedule comprised administration of SC-MTX 50 mg/week for 4 consecutive weeks, followed by 25 mg/week for 4 weeks, and then 15 mg/week for 4 weeks. All patients received oral supplementation of folinic acid (leucovorin) 12 mg, twelve hours after the injection of SC-MTX. All patients had to be MTX-naïve; previous treatment with other conventional synthetic disease modifying anti-rheumatic drugs (cs)DMARDs was allowed only if they have already been withdrawn, for inefficacy or tolerability, before the baseline visit.
If a patient experience fatigue (with an intensity≥grade 2), he/she could receive a double dose of folinic acid: 12 mg at 12 and 24 hours after SC-MTX, respectively.
All the adverse events (AE) occurred during the study and follow-up periods were recorded according to the Common Terminology Criteria for Adverse Events (version 4.0).

The test system of data set [9] is resistant rheumatoid arthritis. To be noted: oral, 5 to 10 to 15 mg/m^2 within 16 weeks; 36 test persons; cited from earlier work.
In data set [10] the test system is patients with RA. Briefly: STEMETRA open-label pilot study, efficacy (DAS28) of step-down SC-MTX. Format: in vivo, human. The method, then: as §1
In the present experimental examples, the Disease Activity Score based on 28 joints (DAS28) testing was carried out according to the protocols described in Fransen J. et al., “Rheumatoid Arthritis measures: Disease Activity Score (DAS), Disease Activity Score-28 (DAS28), Rapid Assessment of Disease Activity in Rheumatology (RADAR), and Rheumatoid Arthritis Disease Activity Index (RADAI)”, Arthritis Rheum 2003; 49, Suppl 9: pages 214 to 224, as well as described in van der Heijde D. M. et al., “Development of a disease activity score based on judgment in clinical practice by rheumatologists”, J Rheumatol. 1993 March, 20(3), pages 579 to 581.
as §2
Eligible patients were≥18 years old affected by rheumatic arthritis (RA), according to the 2010 American College of […]/European league against rheumatism (ACR/EULAR) classification criteria^12, naïve to MTX and with an active disease, defined as a value of disease activity score (DAS)28≥3.2, with at least four tender joints and four swollen joints. Main exclusion criteria were: ongoing or previous treatment with bDMARDs, severe anaemia (defined as haemoglobin<[…]), severe thrombocytopenia (defined as platelets count<100,000/mm^3), severe leucopoenia or neutropenia (defined as white blood cells count<3,000 mm^3 or granulocytes count<1,000 mm^3), severe hepatic dysfunction [defined as aspartate aminotransferase (AST) or alanine aminotransferase (ALT)[…] the upper limit of normal(ULN)], renal function impairment (defined as creatinine clearance<40 mL/min), alcohol intake>70 g/week, pregnancy or breastfeeding, ongoing severe infections, previous infection with Hepatitis B (HBV) or Hepatitis C (HCV), positivity of Quantiferon or Mantoux test.
During each visit, disease activity score based on 28 joints (DAS28) [with both erythrocytes sedimentation rate (ESR) and C-reactive protein (CRP)], simplified disease activity index (SDAI), clinical disease activity index (CDAI), and the Health Assessment Questionnaire (HAQ) were evaluated and calculated as efficacy measures.

Setting [11] is: nine patients, study and follow-up periods.
Setting [12] is: week 12, nine patients, step-down SC-MTX 50/25/15 mg/week, oral folinic acid 12 mg.

On to `CN(Cc1cnc2nc(N)nc(N)c2n1)c1ccc(C(=O)N[C@@H](CCC(=O)O)C(=O)O)cc1` [MTX, (2S)-2-[[4-[(2,4-diaminopteridin-6-yl)methyl-methylamino]benzoyl]amino]-pentanedioic acid], for which the “dose over which absorption is known to plateau” value in [1] (oral (OR-MTX)) was 15 mg. Besides, in [1] (oral), the “dosage at which oral absorption starts to plateau” value was 15 mg/week. In data set [2], the “test persons who did not complete the study” value is on record as “Two”. Further, in data set [3], the “patients who could experience liver enzymes elevation” value was “more than 10%” and the “patients who had to stop MTX because of liver enzymes elevation” value is given as “less than 5%”. Moreover, the “test persons who had to reduce or discontinue the treatment due to toxicity” value in data set [4] is listed as 35%. Moreover, in [5], the “test persons who withdrew the treatment” value was 37%. The “test persons who discontinued the treatment” value in [6] is 18.5%. For the same compound, in [7], the “efficacy rate as a monotherapy” value is reported as “about 35%”. The “increase of alanine aminotransferase (ALT)” value in data set [8] (Patient #6, week 4, resolved spontaneously, normal at week 8) is on record as less than 2 ULN. Also, in [8] (setting [11]), the “number of patients in whom AEs occurred” value turned out to be 4 and the “total number of AEs” value is recorded as 5. For the same compound, the “severe AEs” value in data set [8] (nine patients, whole study) is listed as “none”. Also, the “number of patients with a mild (and transitory) increase in ALT” value in data set [8] (week 4) is “one”. In data set [8] (while taking SC-MTX 50 mg/week), the “AEs occurring in the first 4 weeks” value is listed as “none”. Further, the “test persons who discontinued the treatment due to high toxicity” value in data set [9] is reported as 33%. Also, the “patients with a significant reduction of DAS28” value in data set [10] (step-down SC-MTX regimen, discussion summary) is recorded as approximately 90%. Further, in data set [10] (week 12, 8 out of 9 patients, step-down SC-MTX 50/25/15 mg/week, oral folinic acid 12 mg), the “patients showing a reduction in DAS28>1.2 from baseline” value worked out at 88.8%. Moreover, the “patients who achieved DAS28 remission” value in [10] (week 12, nine patients, SC-MTX 50 mg/week 4 weeks, then 25 mg/week 4 weeks, then 15 mg/week 4 weeks, oral folinic acid 12 mg) is 44.4%. Besides, in [10] (setting [12]), the “patients showing moderate disease activity (DAS28)” value is reported as 11.1%, the “patients who reached low disease activity (DAS28)” value is 22.2% and the “patients who still had high disease activity (DAS28)” value is 22.2%.
